The results in this text go back to ChEMBL document CHEMBL1275268, “Computational analysis of ligand recognition sites of homo- and heteropentameric 5-HT3 receptors” (Eur J Med Chem, 2010).

A word on the half-life: it is the time needed for the level to fall by half in the phase considered. For orientation: Ki means a measure of affinity in units of concentration, obtained from inhibition or displacement. A lower Ki goes with a stronger hold on the target.

Data set [1] in a line: Chemical stability of the compound assessed as half life. In kind it is physicochemical.
The target of data set [2] is T1, 5-hydroxytryptamine receptor 3A (Homo sapiens, UniProt P46098).
T1 sequence (P46098 whole entry): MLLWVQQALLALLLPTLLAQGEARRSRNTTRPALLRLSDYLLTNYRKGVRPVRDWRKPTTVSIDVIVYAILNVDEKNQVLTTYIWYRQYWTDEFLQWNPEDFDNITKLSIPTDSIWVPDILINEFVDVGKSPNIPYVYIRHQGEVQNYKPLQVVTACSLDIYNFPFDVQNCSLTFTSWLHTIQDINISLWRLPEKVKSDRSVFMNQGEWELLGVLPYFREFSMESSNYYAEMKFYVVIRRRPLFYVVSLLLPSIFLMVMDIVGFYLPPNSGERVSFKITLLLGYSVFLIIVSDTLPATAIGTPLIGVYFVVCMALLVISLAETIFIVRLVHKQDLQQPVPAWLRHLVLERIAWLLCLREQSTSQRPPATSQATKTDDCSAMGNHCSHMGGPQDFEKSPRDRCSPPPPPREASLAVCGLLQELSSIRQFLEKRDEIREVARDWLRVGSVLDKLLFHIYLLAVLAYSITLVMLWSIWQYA
The experiment in a line: Binding affinity to 5HT3A receptor.

Regarding `CN1C2CCCC1CC(NC(=O)c1nn(C)c3ccccc13)C2` (stereo not drawn) [GRANISETRON], the half-life in data set [1] was 5 h.

As for `O=C1c2cccc3c2[C@H](CCC3)CN1[C@@H]1CN2CCC1CC2` [PALONOSETRON], the half-life in data set [1] is 38 h. The compound also showed a Ki in data set [2] of 0.0316 nM.
